From patent EP0043274A2, “Antithrombotic treatment” (priority 1980, dated 1982)
Where “and” joins values, the source holds several entries; their conditions need not be identical. Equal values may be shown once. Read-outs that look alike come from different tables or passages of the source.

Columns and labels:
[1] = tested on: human plasma; type: biochemical
[2] = tested on: human plasma; type: biochemical; remark: listed apart in the source
[3] = tested on: thrombus formation in the jugular vein; assay: I 125 fibrinogen technique, damaged jugular vein (venous thrombosis), continuous infusion; type: in vivo, rabbits
Method: The anti venous thrombotic effect of sodium bisulfite is evaluated in rabbits by using I ^125 fibrinogen technique as described in an article in "Archives of Surgery" Vol. 104, pg. 152 (1972).
The rabbit was continuously infused with aqueous sodium bisulfite solution at the rate of […]. (5.154 gram per hour) (animal body weight 2.3 kg) for a time of five hours. After 5 hours, the animal was sacrificed and the radioactive fibrinogen accumulated in the damaged jugular vein was determined. The radioactivity on the contra-lateral (undamaged) jugular vein was also determined to serve as a control. Concurrently, another rabbit had experienced the same procedure but received only a standard sodium chloride solution as a control. The rabbit from the normal saline solution has seven times as much radioactivity as his counterpart infused with sodium bisulfite.
Two jugular veins on a normal, healthy rabbit are exposed and one of the veins is systematically damaged by clamping in two longitudinally spaced places. The rabbit is then continuously infused with aqueous sodium formaldehyde bisulfite at the rate of […] (5.154 gram per hour) (animal body weight 2.3 kg). The rabbit is then injected with fibrinogen labeled with I^125. After 5 hours, the damaged jugular vein is evaluated for radioacive count with a Geiger counter.
This iodine 125 evaluation technique is described by Kakkar in Archieves of Surgery, Vol. 104, pg. 152 (1972) and by Kelton, J.G. et al, Journal of Clinical Investigation, Vol. 62, pgs. 892-895, (1978). […] Other rabbits, similarly evaluated, died, apparently because of overdose by the infustion technique.

[4] = coded agents 0.5mg/ml, […], control 12.92
[5] = 0.5 mg/ml, two different days, control 42.6 / 42.10
[6] = coded agents 0.5mg/ml, […], control 43.38
[7] = amine bisulfites, control plasma 12.8 / 13.1
[8] = amine bisulfites, control plasma 13.1 / 13.0
[9] = in vitro, concentration not given
[10] = amine bisulfites, control plasma 37.5 / 38.2
[11] = amine bisulfites, control plasma 37.8 / 39.2
[12] = 0.5 mg/ml, two different days, control 13.40

cyclohexane [reference compound]
PT (effect in words) ([1]; in vitro, 0.5 mg/ml): minimal effect
PTT (effect in words) ([2]; in vitro, 0.5 mg/ml): minimal effect

CCCC[N+](CCCC)(CCCC)CCCC [tetrabutyl ammonium bisulfite]
radioactivity (I 125 fibrinogen) in damaged jugular vein of saline control rabbit relative to treated rabbit ([3]; continuous infusion .001 mg/kg min (5.154 gram per hour) for five hours): approximately 7 times

c1ccncc1 [PYRIDINE]
PT REPLICATIONS 1 [1]: 29.3
PT REPLICATIONS 2 [1]: 27.8
PT REPLICATIONS 3 [1]: 27.2
PTT REPLICATIONS 1 [2]: 80.0
PTT REPLICATIONS 2 [2]: 71.1
PTT REPLICATIONS 3 [2]: 59.3

Cl.c1ccncc1 [PYRIDINE HYDROCHLORIDE (POWDER), PYRIDINE HYDROCHLORIDE, reference compound]
PT 1 ([1]; HYDROCHLORIDE): 12.6
PT 2 ([1]; HYDROCHLORIDE): 12.5
PT 3 ([1]; HYDROCHLORIDE): 13.8
PTT 1 ([2]; HYDROCHLORIDE): 30.5
PTT 2 ([2]; HYDROCHLORIDE): 30.8
PTT 3 ([2]; HYDROCHLORIDE): 31.1

Sodium Sulfite
PT [1]: 16.38 s
PT(seconds) Exp. 1 A [1]: 16.8 s and 16.2 s
PT(seconds) Exp. 2 A [1]: 17.7 s
PT [1, 4]: 16.14 s
PTT(seconds) Exp. 1 A [2]: 74.8 s and 66.1 s
PTT [2, 5]: 66.53 s
PTT(seconds) Exp. 2 A ([2]; Active Agent 0.5/ml, test sequences A and B, control 50.5 (A), 44.5 (B)): 82.1 s and 80.7 s
PTT [2, 6]: 64.62 s

CCN(CC)C(=S)S [SO4, Sodium diethyl dithiocarbamate, reference compound]
PT [1]: 13.6 s
PT [1, 4]: 14.02 s
PTT [2, 5]: 48.1 s
PTT ([2]; coded agents 0.5mg/ml, mean values of 5 replications, control 43.38): 49.60 s

C=CCNCC=C [DIALLYL AMINE]
PT REPLICATIONS 1 [1, 7]: 13.4
PT REPLICATIONS 2 [1, 7]: 13.7
PT REPLICATIONS 3 [1, 8]: 13.8
PT (effect in words) [1, 9]: low activity
PTT REPLICATIONS 2 [2]: 39.6
PTT REPLICATIONS 1 [2, 10]: 38.8
PTT REPLICATIONS 3 [2, 11]: 39.1
PTT (effect in words) [2, 9]: low activity

Na Sulfide [reference compound]
PT [1, 12]: 21.12 s
PTT [2, 5]: 78.50 s

Nc1ccccc1 [ANILINE]
PT REPLICATIONS 1 [1, 7]: 16.0
PT REPLICATIONS 2 [1, 7]: 16.9
PT REPLICATIONS 3 [1, 8]: 16.0
PTT REPLICATIONS 2 [2]: 44.9
PTT REPLICATIONS 1 [2, 10]: 45.4
PTT REPLICATIONS 3 [2, 11]: 42.9

Na2SO4 [reference compound]
PT [1, 12]: 13.6 s
PTT [2, 5]: 44.2 s

CCN(CC)CC.Cl [TRIETHYLAMINE HYDROCHLORIDE, reference compound]
PT 1 [1]: 12.8
PT 2 [1]: 12.7
PT 3 [1]: 13.5
PTT 1 [2]: 32.0
PTT 2 [2]: 31.5
PTT 3 [2]: 34.5

Na-hydrosulfite [reference compound]
PT [1, 12]: 14.4 s
PTT sec [2, 5]: 45.2 (39.0) sec

CCCCCCCCN.O=S(O)O [n-octyl amine bisulfite]
thrombus formation in the jugular vein (conclusion in words) ([3]; continuous infusion for five hours): definite positive antithrombotic effect

O=C(O)CC(S)C(=O)O (centres unmarked) [Example A2, Mercaptosuccinic acid, reference compound]
PT [1]: 14.7 s
PT [1, 4]: 14.60 s
PTT [2, 5]: 52.6 s
PTT [2, 6]: 48.70 s

CC(C)=O [acetone, reference compound]
PT (effect in words) ([1]; in vitro, 0.5 mg/ml): minimal effect
PTT (effect in words) ([2]; in vitro, 0.5 mg/ml): minimal effect

CCCC[N+](CCCC)(CCCC)CCCC.[Br-] [Tetrabutyl Ammonium Bromide, reference compound]
PT (effect in words) [1]: little or no effect
PT sec. [1]: 12.4 s
PTT (effect in words) [2]: little or no effect
PTT sec [2]: 38.3 s

CNC1CCCCC1 [N-METHYL CYCLOHEXYL AMINE]
PT REPLICATIONS 1 [1, 7]: 20.5
PT REPLICATIONS 2 [1, 7]: 20.3
PT REPLICATIONS 3 [1, 8]: 20.4
PTT REPLICATIONS 2 [2]: 61.8
PTT REPLICATIONS 1 [2, 10]: 60.6
PTT REPLICATIONS 3 [2, 11]: 61.6

2-octanome [Example 2-octanome, reference compound]
PT (effect in words) ([1]; in vitro, 0.5 mg/ml): minimal effect
PTT (effect in words) ([2]; in vitro, 0.5 mg/ml): minimal effect

O=S([O-])S(=O)(=O)[O-].[Na+].[Na+] [Sodium Metabisulfite]
PT [1]: 19.56 s
PT(seconds) Exp. 1 A [1]: 18.5 s
PT(seconds) Exp. 2 A [1]: 21.9 s
PTT(seconds) Exp. 1 A [2]: 76.9 s
PTT [2, 5]: 77.75 s
